{"source": "patent US20260335398A1", "about": "“METHODS FOR TREATING PANCREATIC CANCER WITH A COMBINATION OF DES-METHYL PATEAMINE A AND A CLASS I HDAC INHIBITOR” (Baylor University, priority 2023, published 2026)", "format_in_all_cases": "cell-based", "key": {"MIA PaCa-2 cells [1]": {"tested_on": "MIA PaCa-2 cells", "assay": "Seahorse XF Real-Time ATP Rate Assay (FIG. 8A)", "conditions": "6 h romidepsin then 12 h washout with or without 2 nM DMPatA", "protocol": "FIG. 8A compares quantification of ATP production rates. Seahorse XF Real-Time ATP Rate Assay was performed under control conditions or after treatment with the combination and single agents. Treatment was for a total of 18 h (i.e., 6-hour romidepsin followed by 12-hour washout with 2 nM DMPatA (combo) or without (Romi alone)). FIG. 8A left panel—ATP production rate from mitochondrial respiration (Mito-ATP); FIG. 8A right panel—ATP production rate from glycolysis (Glyco-ATP). At least two biological replicate experiments with n=3 technical replicates were performed. Statistical significance was determined by one-way ANOVA using Tukey multiple comparison's test in the Prism software. *p value<0.01.\nBecause reprograming/augmentation of cellular metabolism by c-MYC is known to support oncogenesis, the Seahorse XF analyzer was used to assess the impact of the treatments on c-MYC-driven metabolism including ATP production, glycolysis, and mitochondrial oxidative phosphorylation (OXPHOS). Extracellular acidification rates, also known as proton efflux rate (PER), were measured for glycolysis and mitochondrial oxygen consumption rates (OCR) for OXPHOS. […]\nOxygen consumption rates (OCR) and extracellular acidification rates (ECAR) were measured using the XF96 Extracellular Flux analyzer (Seahorse Bioscience). […]"}, "MIA PaCa-2 cells [2]": {"tested_on": "MIA PaCa-2 cells", "assay": "Glutamine consumption/rescue of mitochondrial function (ΔOCR) (FIG. 8C right)", "conditions": "cells starved of glucose, glutamine and pyruvate 1 h, then glutamine", "protocol": "FIG. 8C left panel presents the results of metabolic flux analysis showing basal mitochondrial respiration (OXPHOS) (oxygen consumption rate, OCR) in MIA PaCa-2 cells following treatment with combinations or single drugs. Treatment was for a total of 18 h, as mentioned in FIG. 8A. Statistical significance was determined by one-way ANOVA, ***p value<0.001, *p value<0.01. FIG. 8C right panel presents the results of quantification of glutamine consumption. Cells were treated as mentioned in FIG. 8A. Prior to the metabolic measurements cells were starved of glucose, glutamine, and pyruvate for 1-hour after which glutamine was added and response was recorded as ΔOCR (i.e. OCR before and after glutamine addition). Statistical significance was determined by one-way ANOVA, ****p value<0.0001, ***p value<0.0005.\nBecause reprograming/augmentation of cellular metabolism by c-MYC is known to support oncogenesis, the Seahorse XF analyzer was used to assess the impact of the treatments on c-MYC-driven metabolism including ATP production, glycolysis, and mitochondrial oxidative phosphorylation (OXPHOS). Extracellular acidification rates, also known as proton efflux rate (PER), were measured for glycolysis and mitochondrial oxygen consumption rates (OCR) for OXPHOS. We utilized the 6 h exposure followed by 18 h washout strategy for romidepsin described earlier. […]"}, "MIA PaCa-2 cells [3]": {"tested_on": "MIA PaCa-2 cells", "assay": "Cellular acetyl-CoA levels by LC-MS (FIG. 8D)", "conditions": "MIA PaCa-2, total 18 h", "protocol": "FIG. 8D compares cellular acetyl-CoA levels measured in MIA PaCa-2 cells using LC-MS following treatment of cells with the combination or with single agents as mentioned in FIG. 8A. At least three biological replicate experiments were carried out. Statistical significance was determined by two-way ANOVA, ****p value<0.0001, ***p value<0.0004.\nFive million cells were seeded in 150 mm cell culture dishes. Cells were treated with combination or single agents for a total of 18 h (6-+12-hours). Following treatment cells were harvested on ice, washed, and scraped out under liquid nitrogen. Prior to extraction an aliquot of the cell pellet was collected and subjected to protein quantification.\nFor Acetyl-CoA extraction, a 100 μL aliquot of the thawed pellet was spiked with ^13C2-acetyl-CoA as an internal standard, extracted with 400 μL of methanol, vortexed, and centrifuged at […] for 5 minutes at 4 °C. The methanol supernatant (400 μL) was then dried under nitrogen at 35 °C and reconstituted in 100 μL of 10 mM ammonium bicarbonate (pH 9.5) for LC/MS analysis. Calibration curve standards were similarly prepared as the cell pellets. Acetyl-CoA quantification by LC/MS was performed on an Agilent 1290 Infinity UHPLC/6495 triple quadrupole mass spectrometer, using multiple reaction monitoring. […]"}}, "data": [{"smiles": "C/C=C1\\NC(=O)[C@H]2CSSCC/C=C/[C@H](CC(=O)N[C@H](C(C)C)C(=O)N2)OC(=O)[C@H](C(C)C)NC1=O", "note": "[romidepsin]", "values": [{"measurement": "glycolytic ATP production (Glyco-ATP)", "setting": "MIA PaCa-2 cells [1]", "value": "reduced"}, {"measurement": "mitochondrial ATP production (Mito-ATP)", "setting": "MIA PaCa-2 cells [1]", "value": "reduced"}, {"measurement": "glutamine rescue of mitochondrial function (ΔOCR)", "setting": "MIA PaCa-2 cells [2]", "value": "impaired glutamine rescue of mitochondrial function"}, {"measurement": "cellular acetyl-CoA levels", "setting": "MIA PaCa-2 cells [3]", "value": "significant reduction"}]}]}
